ChEMBL document CHEMBL1201862, “PubChem BioAssay data set” (2004)
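These data come from cells grown in 96-well plates and exposed to compound for 48 hours at five concentrations. GI50 = concentration required for 50% inhibition of growth.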 Active and inactive are the calls of the source. Cut-off read from the data, not from the text of the source: active = GI50 up to about 1.1 µM and inactive = higher.

Columns and labels:
Assay in all cases: NCI anticancer screen, dose series, 48 h
SF-295 = system: SF-295
K562 = system: K562
RXF 393 = system: RXF 393
LXFL 529 = system: LXFL 529
SF-539 = system: SF-539
XF498 = system: XF498
CCRF-CEM = system: CCRF-CEM
MOLT-4 = system: MOLT-4
SK-MEL-2 = system: SK-MEL-2
NCI-H226 = system: NCI-H226
SNB-75 = system: SNB-75
LOX IMVI = system: LOX IMVI
TK-10 = system: TK-10
A549 = system: A549
DMS-273 = system: DMS-273
NCI-H522 = system: NCI-H522
ACHN = system: ACHN
SNB-78 = system: SNB-78
HCT-116 = system: HCT-116
SR = system: SR
IGROV-1 = system: IGROV-1
UACC-62 = system: UACC-62
U-251 = system: U-251
HOP-18 = system: HOP-18
OVCAR-8 = system: OVCAR-8
SK-MEL-28 = system: SK-MEL-28
OVCAR-5 = system: OVCAR-5
HOP-92 = system: HOP-92
SNB-19 = system: SNB-19
RPMI-8226 = system: RPMI-8226
UACC-257 = system: UACC-257
EKVX = system: EKVX
SW-620 = system: SW-620
HOP-62 = system: HOP-62
M14 = system: M14
HCC 2998 = system: HCC 2998
SK-OV-3 = system: SK-OV-3
NCI-H23 = system: NCI-H23
A498 = system: A498
SN12C = system: SN12C
786-0 = system: 786-0
HL-60 = system: HL-60
SF-268 = system: SF-268
HCT-15 = system: HCT-15
DLD-1 = system: DLD-1
OVCAR-3 = system: OVCAR-3
DMS-114 = system: DMS-114
M19-MEL = system: M19-MEL
KM12 = system: KM12
Malme-3M = system: Malme-3M
HT-29 = system: HT-29
KM-20L2 = system: KM-20L2
SK-MEL-5 = system: SK-MEL-5
COLO 205 = system: COLO 205
UO-31 = system: UO-31

Measured: GI50

Cc1c(C)c([N+](=O)[O-])c2c(c1N)C(=O)c1ccccc1C2=O
inactive: SF-295 > 100 µM | K562 > 100 µM | RXF 393 > 100 µM | LXFL 529 > 100 µM | SF-539 > 100 µM | XF498 > 100 µM | CCRF-CEM > 100 µM | MOLT-4 > 100 µM | SK-MEL-2 > 100 µM | NCI-H226 > 100 µM | SNB-75 > 100 µM | LOX IMVI > 100 µM | TK-10 > 100 µM | A549 > 100 µM | DMS-273 > 100 µM | NCI-H522 61.7 µM | ACHN > 100 µM | SNB-78 > 100 µM | HCT-116 > 100 µM | SR > 100 µM | IGROV-1 > 100 µM | UACC-62 > 100 µM | U-251 > 100 µM | HOP-18 33 µM | OVCAR-8 > 100 µM | SK-MEL-28 > 100 µM | OVCAR-5 > 100 µM | HOP-92 > 100 µM | SNB-19 > 100 µM | RPMI-8226 > 100 µM | UACC-257 > 100 µM | EKVX > 100 µM | SW-620 > 100 µM | HOP-62 > 100 µM | M14 > 100 µM | HCC 2998 > 100 µM | SK-OV-3 > 100 µM | NCI-H23 > 100 µM | A498 > 100 µM | SN12C > 100 µM | 786-0 65.5 µM | HL-60 > 100 µM | SF-268 > 100 µM | DLD-1 > 100 µM | OVCAR-3 24.8 µM | DMS-114 > 100 µM | M19-MEL 90.8 µM | KM12 > 100 µM | Malme-3M > 100 µM | HT-29 55.2 µM | KM-20L2 > 100 µM | SK-MEL-5 > 100 µM | COLO 205 58.9 µM | UO-31 > 100 µM
> 100 µM: HCT-15
